# Test results as given in patent US20230072421A1, “TARGETED RADIOPHARMACEUTICALS FOR THE DIAGNOSIS AND TREATMENT OF PROSTATE CANCER” (Bayer AS, priority 2019, published 2023).
# What was measured:
# VCaP cells = assay: Cell proliferation assay (CellTiter-Glo, 5-day exposure), VCaP; type: cell-based; conditions: 4000 cells/well, Th-227 labelled at 375 kBq/nmol, mean of 1 to 6 experiments
# Description: (§1) Inhibition of cell proliferation of Thorium-227 labeled PMSA SMOL ligands was tested different prostate cancer cell lines, namely 22Rv1, VCaP, C4-2 (all from ATCC, Manassas, Va., USA) and LNCaP (DMSZ, Braunschweig). Cells were seeded using the following conditions in 384 well plates (Corning) in 30 μl of growth media at 4000 cells/well for VCaP cells and 1000 cells/well for 22Rv1, C4-2 and LNCaP cells.
# (§2) Cells were cultivated an incubator at 37° C. and 5% C02 over night. […] In sister plates cell viability at treatment start (d=0) was determined using CellTiter-Glo® assay (CTG, Promega, Madison, Wis., USA), by adding 30 μl per well CTG solution, incubation for 10 min and reading of Luminescence in a PheraStarFSX instrument (BMG Labtech). After a 5-day exposure in the presenced of test compounds, cell viability of treated or untreated control cells was determined again using CellTiter-Glo® assay (Promega, Madison, Wis., USA). […] The DRC software is a Biobook Spreadsheet that was developed by Bayer AG and Bayer Business Services on the IDBS E-Workbook Suite platform (IDBS: ID Business Solutions Ltd., Guildford, UK).
# C4-2 cells = assay: Cell proliferation assay (CellTiter-Glo, 5-day exposure), C4-2; type: cell-based; conditions: C4-2, 1000 cells/well, Th-227 labelled at 375 kBq/nmol, mean of 1 to 6 experiments
# Description: as §1, §2
# 22Rv1 cells = assay: Cell proliferation assay (CellTiter-Glo, 5-day exposure), 22Rv1; type: cell-based; conditions: 22Rv1, 1000 cells/well, Th-227 labelled at 375 kBq/nmol, mean of 1 to 6 experiments
# Description: as §1, §2
# [1] = tested on: LNCaP human prostate cancer cells; assay: LNCaP xenograft efficacy study (T/C tumor area); type: in vivo, SCID mice
# Description: (§3) SCID mice were randomly assigned to experimental groups, ten animals per group (efficacy) or n=3-5 per time point of biodistribution study. At the initiation of the study, a testosterone pellet was subcutaneously transplanted, the animals were shaved, tattooed and each cage was labeled with the cage number, study number and number of animals per cage.
# (§4) LNCaP human prostate cancer cells were cultured as described according to the supplier's protocols. Cells were harvested for transplantation in a subconfluent (70%) state. Animals were injected with 5×10^6 LNCaP cells suspended in 100% Matrigel subcutaneously into the flank of the mice.
# Efficacy study: When tumors reached a predetermined size in mice of 35-50 mm^2 animals were randomized into treatment and control groups (n=10 animals/group) and treatment with the defined radioactive dose was started. The i.v. application volume was 100 μl/mice.
# Tumor response was assessed by determination of the tumor area (product of the longest diameter and its perpendicular) using a caliper. The animal body weight was monitored as a measure for treatment-related toxicity. Measurement of tumor area and body weight was performed two to three times weekly.
# Animals were sacrificed when showing signs of toxicity (>20% body weight loss) or when tumors reached a size of approximately 200 mm^2.
# Tumor growth inhibition is presented as T/C ratio (Treatment/Control) calculated with tumor areas when the vehicle control group had to be closed.
# [2] = Biodistribution study in LNCaP tumor-bearing mice (Th227 counted in organs); type: in vivo, SCID mice; conditions: 1500 kBq/kg
# Description: as §3, §4
# Biodistribution study: When tumors reached a predetermined size in mice of ˜50 mm^2 animals were randomized into groups (n=3 animals/time point) and the radioactive compound was once applied intravenously. The i.v. application volume was 100 μl/mice.
# At the predetermined time point, n=3 animals were sacrificed, the organs removed, weight and measured in a Germanium detector to count the Th227 in the sample.
smiles,measurement,setting,value
"O=C([O-])CN1CCN(CC(=O)[O-])CCN(CC(=O)NCc2ccc(C(=O)N[C@@H](Cc3ccc4ccccc4n3)C(=O)NCCCC[C@H](NC(=O)N[C@@H](CCC(=O)O)C(=O)O)C(=O)O)nc2)CCN(CC(=O)[O-])CC1.[227Th+4] [Example 34-B-227Th, {N^6-[3-(quinolin-2-yl)-N-{5-[(2-{4,7,10-tris[(carboxy-kappaO)methyl]-1,4,7,10-tetraazacyclododecan-1-yl-kappa^4N^1,N^4,N^7,N^10}acetamido)methyl]pyridine-2-carbonyl}-L-alanyl]-N^2-{[(1S)-1,3-dicarboxypropyl]carbamoyl}-L-lysinato(4−)}(^227Th)Thorate(1−)]",Proliferation assay on cancer cell lines by TTCs Default Pivot #3 IC50 [kBq/mL] VCap 4000cells 375kBq/nmol (mean),VCaP cells,1.75 kBq/mL
same,Proliferation assay on cancer cell lines by TTCs Default Pivot #3 IC50 [kBq/mL] C4-2 1000cells 375kBq/nmol (mean),C4-2 cells,0.63 kBq/mL
same,Proliferation assay on cancer cell lines by TTCs Default Pivot #3 IC50 [kBq/mL] 22Rv1 1000cells 375kBq/nmol (mean),22Rv1 cells,0.76 kBq/mL
same,T/Carea,"[1]; Example III, day 64 after start of therapy, single treatment 1.5 MBq/kg",0.23
same,T/Carea,"[1]; Example IV, day 36 after start of therapy, once 1 MBq/kg",0.66
same,Th-227 in Blood,[2]; 0.25 h,1.78% ID Th-227/g organ
same,Th-227 in Liver,[2]; 0.25 h,1.69% ID Th-227/g organ
same,Th-227 in Spleen,[2]; 0.25 h,17.32% ID Th-227/g organ
same,Th-227 in Tumor,[2]; 0.25 h,6.33% ID Th-227/g organ
same,Th-227 in bone,[2]; 0.25 h,1.66% ID Th-227/g organ
same,Th-227 in brain,[2]; 0.25 h,0.12% ID Th-227/g organ
same,Th-227 in kidney,[2]; 0.25 h,62.53% ID Th-227/g organ
same,Th-227 in large intestine,[2]; 0.25 h,0.67% ID Th-227/g organ
same,Th-227 in lung,[2]; 0.25 h,4.04% ID Th-227/g organ
same,Th-227 in muscle,[2]; 0.25 h,1.02% ID Th-227/g organ
same,Th-227 in prostate,[2]; 0.25 h,0.00% ID Th-227/g organ
same,Th-227 in salivary glands,[2]; 0.25 h,3.14% ID Th-227/g organ
same,Th-227 in small intestine,[2]; 0.25 h,1.36% ID Th-227/g organ
same,Accumulation in the tumor (in words),[2],good and stable accumulation in the tumor
same,Th-227 in Blood,[2]; 1 hr,0.58% ID Th-227/g organ
same,Th-227 in Liver,[2]; 1 hr,0.88% ID Th-227/g organ
same,Th-227 in Spleen,[2]; 1 hr,19.69% ID Th-227/g organ
same,Th-227 in Tumor,[2]; 1 hr,9.15% ID Th-227/g organ
same,Th-227 in bone,[2]; 1 hr,1.27% ID Th-227/g organ
same,Th-227 in brain,[2]; 1 hr,0.02% ID Th-227/g organ
same,Th-227 in kidney,[2]; 1 hr,69.22% ID Th-227/g organ
same,Th-227 in large intestine,[2]; 1 hr,0.45% ID Th-227/g organ
same,Th-227 in lung,[2]; 1 hr,2.79% ID Th-227/g organ
same,Th-227 in muscle,[2]; 1 hr,0.54% ID Th-227/g organ
same,Th-227 in prostate,[2]; 1 hr,0.62% ID Th-227/g organ
same,Th-227 in salivary glands,[2]; 1 hr,1.75% ID Th-227/g organ
same,Th-227 in small intestine,[2]; 1 hr,0.64% ID Th-227/g organ
same,Th-227 in Blood,[2]; 4 hr,0.07% ID Th-227/g organ
same,Th-227 in Liver,[2]; 4 hr,0.55% ID Th-227/g organ
same,Th-227 in Spleen,[2]; 4 hr,11.57% ID Th-227/g organ
same,Th-227 in Tumor,[2]; 4 hr,7.00% ID Th-227/g organ
same,Th-227 in bone,[2]; 4 hr,1.44% ID Th-227/g organ
same,Th-227 in brain,[2]; 4 hr,0.00% ID Th-227/g organ
same,Th-227 in kidney,[2]; 4 hr,65.52% ID Th-227/g organ
same,Th-227 in large intestine,[2]; 4 hr,0.79% ID Th-227/g organ
same,Th-227 in lung,[2]; 4 hr,1.48% ID Th-227/g organ
same,Th-227 in muscle,[2]; 4 hr,0.41% ID Th-227/g organ
same,Th-227 in prostate,[2]; 4 hr,4.08% ID Th-227/g organ
same,Th-227 in salivary glands,[2]; 4 hr,1.05% ID Th-227/g organ
same,Th-227 in small intestine,[2]; 4 hr,1.13% ID Th-227/g organ
same,Th-227 in Blood,[2]; 24 h,0.01% ID Th-227/g organ
same,Th-227 in Liver,[2]; 24 h,0.23% ID Th-227/g organ
same,Th-227 in Spleen,[2]; 24 h,1.21% ID Th-227/g organ
same,Th-227 in Tumor,[2]; 24 h,10.56% ID Th-227/g organ
same,Th-227 in bone,[2]; 24 h,1.21% ID Th-227/g organ
same,Th-227 in brain,[2]; 24 h,0.00% ID Th-227/g organ
same,Th-227 in kidney,[2]; 24 h,21.02% ID Th-227/g organ
same,Th-227 in large intestine,[2]; 24 h,0.10% ID Th-227/g organ
same,Th-227 in lung,[2]; 24 h,0.27% ID Th-227/g organ
same,Th-227 in muscle,[2]; 24 h,0.00% ID Th-227/g organ
same,Th-227 in prostate,[2]; 24 h,0.00% ID Th-227/g organ
same,Th-227 in salivary glands,[2]; 24 h,0.11% ID Th-227/g organ
same,Th-227 in small intestine,[2]; 24 h,0.08% ID Th-227/g organ
same,Th-227 in Blood,[2]; 96 h,0.00% ID Th-227/g organ
same,Th-227 in Liver,[2]; 96 h,0.19% ID Th-227/g organ
same,Th-227 in Spleen,[2]; 96 h,0.43% ID Th-227/g organ
same,Th-227 in Tumor,[2]; 96 h,9.97% ID Th-227/g organ
same,Th-227 in bone,[2]; 96 h,1.08% ID Th-227/g organ
same,Th-227 in brain,[2]; 96 h,0.00% ID Th-227/g organ
same,Th-227 in kidney,[2]; 96 h,9.71% ID Th-227/g organ
same,Th-227 in large intestine,[2]; 96 h,1.44% ID Th-227/g organ
same,Th-227 in lung,[2]; 96 h,0.13% ID Th-227/g organ
same,Th-227 in muscle,[2]; 96 h,0.00% ID Th-227/g organ
same,Th-227 in prostate,[2]; 96 h,0.00% ID Th-227/g organ
same,Th-227 in salivary glands,[2]; 96 h,0.10% ID Th-227/g organ
same,Th-227 in small intestine,[2]; 96 h,0.25% ID Th-227/g organ
